The text below walks through data of the METLIN SMRT retention time set (Domingo-Almenara et al. 2019).

SMILES strings stand for the structures.

The data set can be described thus: gradient 5% acetonitrile 3 min, to 50% in 2 min, to 85% in 15 min, held 3 min, 100 µL/min. The settings on record: column: Zorbax Extend-C18 2.1 x 50 mm; eluents: water / acetonitrile, 0.1% formic acid. Put shortly: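 Standards, all pure, were combined into mixtures of ~100 molecules and run at 100 μL/min on a Zorbax Extend-C18 column (2.1 × 50 mm, 1.8 μm) with water and acetonitrile, each containing 0.1% formic acid. A coupled quadrupole time-of-flight mass spectrometer operated in positive and negative ionization mode. Retention time values come from computationally picked adduct peaks, each inspected manually.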
Regarding `O=C(COc1ccccc1Br)Nc1nc(-c2ccccc2)cs1`, the RP-LC retention time worked out at 1130 s.

For `O=C(NCc1ccc(S(=O)(=O)c2cc(F)cc(F)c2)cc1)c1ccc2nccn2c1`, the RP-LC retention time came to 724 s.

`Cc1ccc(NC(=O)c2cc(C)n3nccc3n2)cc1C` gave an RP-LC retention time of 1030 s.

Take `CCOC(=O)C1CCCN(CC(O)COc2ccccc2Br)C1` (stereo not given): the RP-LC retention time was found to be 590 s.

In turn, `CCOc1ccc(C(=O)NCc2noc(-c3cccc(Cl)c3)n2)cc1` gave an RP-LC retention time of 963 s.

With `O=S(=O)(Nc1cccc(F)c1)c1ccc2nncn2c1`, the RP-LC retention time came out at 657 s.

`CSCc1nnc(NC(=O)c2ccc(S(=O)(=O)N3CC(C)OC(C)C3)cc2)o1` (stereo not given) had an RP-LC retention time of 704 s.

`CCN(CC)CCNC(=O)Cn1c(-c2ccccn2)nc2ccccc21`: the RP-LC retention time turned out to be 571 s.

As for `COc1cc(C(=O)NC(C)COc2ccc(C(C)C)cc2)cc(OC)c1OC` (stereo not given), the RP-LC retention time came out at 965 s.

As to `Cc1ccc(C)c(-n2ncc3c(N4CCN(C)CC4)ncnc32)c1`, the RP-LC retention time turned out to be 614 s.

Compound `CCC(C)(C)C(=O)N1CCCC(c2nc(CCNC(=O)C(C)C)cs2)C1` (stereo not given) yielded an RP-LC retention time of 783 s.

In turn, `Cc1nc(-c2csc(S(=O)(=O)N3CCCC(C(=O)Nc4cccc(C)c4C)C3)c2)no1` (stereo not given) yielded an RP-LC retention time of 951 s.

In the case of `O=C(NCc1csc(-c2ccccc2)n1)C1CCN(S(=O)(=O)c2cccs2)CC1`, the RP-LC retention time amounted to 872 s.

`COc1ccc2[nH]cc(CCNC(=O)c3cccc(NC(=O)c4nnc(CC(C)C)s4)c3)c2c1` displayed an RP-LC retention time of 938 s.

`CCn1nccc1C(=O)NCC1Cn2cccc2C(=O)N1C` (stereo not given) returned an RP-LC retention time of 605 s.

Consider `CCc1nc(-c2csc(S(=O)(=O)N3CCCC(C(=O)Nc4ccc(C#N)cc4)C3)c2)no1` (stereo not given), for which the RP-LC retention time came out at 1020 s.

In turn, `CNC(=O)c1c(-c2ccc(F)cc2)oc2cc(N(CCO)S(C)(=O)=O)c(C3CC3)cc12` had an RP-LC retention time of 838 s.

With `CS(=O)(=O)N1C[C@H]2CCN(Cc3ccc(F)cc3F)C[C@H]21`, the RP-LC retention time was 584 s.

In turn, `COc1ccc(NC(C)=O)cc1NS(=O)(=O)C1CC1` gave an RP-LC retention time of 607 s.

In turn, `Cc1cccc(-c2nn3c(c2-c2ccnc4ccc(C(N)=O)cc24)CCC3)n1` had an RP-LC retention time of 612 s.

Consider `CC(/C=C/C(=O)NO)=C\C(C)C(=O)c1ccc(N(C)C)cc1` (stereo not given), for which the RP-LC retention time was determined as 723 s.

Regarding `COc1ccc(Cl)cc1NC(=O)C1CCN(S(C)(=O)=O)c2ccccc2O1` (stereo not given), the RP-LC retention time turned out to be 1030 s.

As to `Cc1cc(NC(=O)CN2C(=O)c3ccccc3C2=O)n(-c2ccccc2)n1`, the RP-LC retention time was 709 s.

Turning to `Cc1ccc(-c2nnc(N3CCC(C(=O)NC(C)c4ccc(F)cc4)CC3)o2)cc1` (stereo not given), the RP-LC retention time came to 892 s.

Turning to `CC(C)n1c(=O)sc2cc(S(=O)(=O)N3CCC(C(=O)N4CCCCC4)CC3)ccc21`, the RP-LC retention time is 900 s.

As for `COc1ccc(CNC(=O)NC2CCN(c3ccc(C)c(C)c3)C2=O)cc1` (stereo not given), the RP-LC retention time worked out at 793 s.

`CCc1ccccc1NC(=O)N1CC(Cc2nncn2C(C)C)C1` registered an RP-LC retention time of 646 s.

For `CC(C)NC(=O)N(C1CC1)C1CCOC2(CCN(C(=O)c3ccco3)CC2)C1` (stereo not given), the RP-LC retention time stood at 707 s.

`CCc1cc(=O)n(CC(=O)Nc2cccc(F)c2)c(N2CCOCC2)n1` had an RP-LC retention time of 763 s.

`COc1ccc(-c2n[nH]c3c2C(c2cccc(O)c2)NC3=O)cc1` (stereo not given) registered an RP-LC retention time of 654 s.

Compound `CCOC(=O)Cn1c(C2CC(=O)N(c3cccc(SC)c3)C2)nc2ccccc21` (stereo not given) returned an RP-LC retention time of 852 s.

Regarding `O=C1CN(C(=O)Cc2ccc(OC(F)(F)F)cc2)C2(CCCC2)CN1`, the RP-LC retention time is 790 s.

For the compound `Cc1cccc(OCc2nc(-c3ccc(NS(C)(=O)=O)cc3)no2)c1`, the RP-LC retention time came to 801 s.

`c1ccc(-c2nc(-c3cnccn3)no2)c(OC2CCNC2)c1` (stereo not given) came in with an RP-LC retention time of 615 s.

In turn, `CCN1C(=O)c2c(C(=O)NCCCc3ccccc3)ncn2CC1(C)C(=O)NC1CCCC1` (stereo not given) had an RP-LC retention time of 822 s.

For `COc1ccc(Cl)cc1NC(=O)C1CCN(S(=O)(=O)c2cc(-c3noc(C)n3)cs2)CC1`, the RP-LC retention time is 1050 s.

For the compound `CC(C)(C)c1noc(-c2ccc(-n3cnc(C(=O)N4CCCCCC4)c3)nc2)n1`, the RP-LC retention time is 1030 s.

`O=C(CCC[C@@H]1[C@H]2CCCN3CCC[C@@H](CN1C(=O)c1cccs1)[C@@H]23)NCC1CC1` displayed an RP-LC retention time of 586 s.

With `Cc1cc(N2CCOCC2)nc(N2CCN(C(=O)c3ccccc3Br)CC2)n1`, the RP-LC retention time stood at 612 s.

Consider `COc1ccc(N2CCN(c3nc(C(=O)N4CCOCC4)cs3)CC2)cc1`, for which the RP-LC retention time came out at 716 s.

Regarding `O=C(c1cc(-c2ccccc2)n[nH]1)N1CCN(c2cc(-c3ccccc3)ncn2)CC1`, the RP-LC retention time was 609 s.

In turn, `Cc1ccc2c(c1)c1c(n2CC(O)Cn2nc(C)cc2C)CCCC1` (stereo not given) had an RP-LC retention time of 1050 s.

`COc1ccc(-c2nnc(COc3ccc(NC(=O)C4CCN(C(C)=O)CC4)cc3)o2)cc1` returned an RP-LC retention time of 703 s.

`CCN1C(=O)c2cccnc2Sc2cc(NC(=O)c3ccccc3Cl)ccc21`: the RP-LC retention time was 828 s.

With `O=C(Cc1ccc(F)cc1)N1CCCC1c1nc(-c2ccc(F)cc2)no1` (stereo not given), the RP-LC retention time worked out at 1010 s.

Compound `CCc1ccccc1S(=O)(=O)N1CCC(C(=O)NCCc2csc(-c3cccs3)n2)CC1` came in with an RP-LC retention time of 981 s.

On to `CC1CCN(c2cnn(CC(=O)Nc3cccc(Cl)c3F)c(=O)c2Cl)CC1`, for which the RP-LC retention time stood at 1020 s.

As for `COc1ccc(-n2nnc(C(=O)O)c2C)cc1OC`, the RP-LC retention time came out at 628 s.

For the compound `COc1ccc(C2Cn3cnc(C(=O)N4CCC(C(=O)NC5CC5)CC4)c3CO2)cc1` (stereo not given), the RP-LC retention time turned out to be 648 s.

For `CCOC(=O)c1cccc(N2C=C(C(=O)OC)S(=O)(=O)c3ccc(F)cc32)c1`, the RP-LC retention time came out at 908 s.

The compound `O=C(NCC1CCN(C(=O)Nc2ccc(F)cc2)CC1)Oc1ccccc1` displayed an RP-LC retention time of 772 s.

Consider `Cc1ccc2nc(C)cc(C(=O)NC3CCCC3)c2c1`, for which the RP-LC retention time worked out at 610 s.

Turning to `CC(=O)c1cccc(NS(=O)(=O)c2ccc(-c3c(C)noc3C)cc2)c1`, the RP-LC retention time stood at 805 s.

Compound `CC1CCN(S(=O)(=O)c2ccc(-c3cc(C(F)(F)F)on3)o2)CC1` showed an RP-LC retention time of 1190 s.

Regarding `CCCCNC(=O)C1CCN(Cc2cn(C)c3ccc(Cl)cc23)CC1`, the RP-LC retention time was 667 s.

`Cc1ccc2c(c1)NC(=O)c1cc(NS(=O)(=O)c3ccccc3F)ccc1O2` had an RP-LC retention time of 571 s.

`Fc1ccc(-n2cc(-c3noc(-c4ccccc4F)n3)nn2)cc1` came in with an RP-LC retention time of 1040 s.

For `Cc1sc(NC(=O)c2cccs2)nc1-c1ccc2c(c1)NC(=O)C(C)O2` (stereo not given), the RP-LC retention time amounted to 883 s.

With `O=C(Cc1csc2nc(-c3cccc(Br)c3)cn12)NC1CCCCC1`, the RP-LC retention time was determined as 952 s.

Regarding `CC(C(O)c1ccc(O)cc1)N1CCC(Cc2ccccc2)CC1` (stereo not given), the RP-LC retention time was determined as 718 s.

`Cc1oc2ncnc(N3CCCC(C(=O)N4CCC(C(N)=O)CC4)C3)c2c1C` (stereo not given): the RP-LC retention time is 620 s.

In turn, `Cc1cc(C(F)(F)F)nn1CC(=O)N1CCC(n2c(C)cnc2C2CCC2)C1` (stereo not given) registered an RP-LC retention time of 656 s.

Regarding `CCc1ccccc1NC(=O)N1CCc2nc[nH]c2C1`, the RP-LC retention time came to 575 s.

The compound `O=C(NCCCn1c(-c2ccncc2)nc2cccnc21)Nc1ccc(Br)cc1F` had an RP-LC retention time of 718 s.

As for `CC(C)CC(=O)Nc1ccc2nc(N3CCN(c4cccc(Cl)c4)CC3)cc(C(=O)O)c2c1`, the RP-LC retention time came out at 762 s.

In the case of `CCOc1ccc(NC(=O)C2CCCN2S(=O)(=O)c2cc3c(cc2Cl)NC(=O)CO3)cc1` (stereo not given), the RP-LC retention time was found to be 785 s.

For the compound `O=C(NCc1ccco1)c1cc(N2C(=O)CCS2(=O)=O)ccc1Cl`, the RP-LC retention time was 675 s.

`Cc1[nH]c(C(=O)NCc2ccccc2Cl)c(C)c1S(=O)(=O)N1CCCC1` came in with an RP-LC retention time of 866 s.

Turning to `O=C(NCc1ccc(Cl)cc1)C1CC(=O)N(CCc2c[nH]c3ccc(F)cc23)C1` (stereo not given), the RP-LC retention time was found to be 802 s.

The compound `c1ccc(C(NCc2cccnc2)(c2ccccc2)c2ccccc2)cc1` displayed an RP-LC retention time of 831 s.

As for `O=C(Nc1ccc(OCc2nnc(-c3ccccc3)o2)cc1)c1ccnc(Cl)c1`, the RP-LC retention time is 908 s.

In turn, `CC1(C(=O)NC2CCCCC2)CN(S(=O)(=O)c2ccccc2)CC(=O)N1c1ccccc1F` (stereo not given) returned an RP-LC retention time of 932 s.

Compound `CSc1ccc(-c2nc3cnccn3c2NC2CCCCC2)cc1` registered an RP-LC retention time of 1010 s.

As to `O=C(CSc1cc(N2CCN(c3ccccc3F)CC2)ncn1)NCc1cccs1`, the RP-LC retention time worked out at 931 s.

For the compound `Cc1cccc(CC(=O)NC2CCN(c3cc(-c4cccs4)[nH]n3)C2)c1` (stereo not given), the RP-LC retention time came out at 726 s.

Turning to `NC(=O)C1CCc2sc(C(=O)N3CCCCCC3)cc2C1` (stereo not given), the RP-LC retention time is 663 s.

In turn, `Cc1ncc2c(n1)C[C@@H]1CC[C@H]2N1S(=O)(=O)Cc1ccccc1` returned an RP-LC retention time of 706 s.

`CCn1c(CCC(=O)NCc2ccc(F)cc2)nc2c(C)cccc2c1=O` had an RP-LC retention time of 848 s.

In the case of `COC(=O)c1ccc(-c2nc3cnccn3c2Nc2cc(C)cc(C)c2)cc1`, the RP-LC retention time turned out to be 978 s.

Compound `CNC(=O)Nc1ccc(C2(C(=O)Nc3ccc4c(c3)CCC4)CCC2)cc1` returned an RP-LC retention time of 844 s.
